Data published in patent publication US20030068282A1, “Composition” (Unilever Home & Personal Care USA, Division of Conopco, Inc., priority 2001, published 2003).

Assay: salivary sediment model: amount of n-octyl paraben delivered from toothpaste to salivary sediment
Format: in vitro ADME
Conditions: for amount of paraben delivered, Rep 1 / amount of paraben delivered, Rep 2 / amount of paraben delivered, Mean: toothpaste with 1.1% n-octyl paraben; for amount of paraben delivered, Rep 1 / amount of paraben delivered, Rep 2: ex-vivo samples; for amount of paraben delivered, Mean: mean of two repetitions
Description: Standard toothpastes comprising SLS and n-octyl paraben were tested in a salivary sediment model similar to that described by R. L. Wijeijweera and I. Kleinberg in Archs. Oral Biol., Vol. 34, No. 1, 1989, pages 43-53, using ex-vivo samples and measuring the amount of n-octyl paraben delivered to the salivary sediment.
Two repetitions were carried out for each SLS level in a paste comprising 1.1% n-octyl paraben. The values represnet the amount (ppm per ml sediment suspension) of paraben delivered.

amount of paraben delivered, Rep 1 (1.4% SLS in base): 60.080 ppm per ml sediment suspension
amount of paraben delivered, Rep 2 (1.4% SLS in base): 61.657 ppm per ml sediment suspension
amount of paraben delivered, Mean (1.4% SLS in base): 60.869 ppm per ml sediment suspension
amount of paraben delivered, Rep 1 (1.6% SLS in base): 59.534 ppm per ml sediment suspension
amount of paraben delivered, Rep 2 (1.6% SLS in base): 63.775 ppm per ml sediment suspension
amount of paraben delivered, Mean (1.6% SLS in base): 61.654 ppm per ml sediment suspension
amount of paraben delivered, Rep 1 (1.8% SLS in base): 48.790 ppm per ml sediment suspension
amount of paraben delivered, Rep 2 (1.8% SLS in base): 48.352 ppm per ml sediment suspension
amount of paraben delivered, Mean (1.8% SLS in base): 48.571 ppm per ml sediment suspension
SMILES: CCCCCCCCOC(=O)c1ccc(O)cc1 [n-octyl paraben]
level of paraben delivered, comparison between SLS levels (SLS levels 1.4 and 1.6% compared with 1.8%): greater at SLS levels ranging at 1.4 and 1.6% than for 1.8%
